Measurements: ChEMBL document CHEMBL1201862, “PubChem BioAssay data set” (2004)
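A five-concentration, 48-hour dose response in 96-well plates underlies each endpoint, interpolated linearly between surrounding concentrations. Here, GI50 denotes the concentration required for 50% inhibition of growth.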 Active and inactive are the calls of the source. No stated cut-off is given here; in the data, active = GI50 up to about 1.1 µM and inactive = higher.

Legend:
Assay in all cases: growth of human tumour cells (NCI), 48 h
UACC-62 = test system: UACC-62
A498 = test system: A498
HOP-92 = test system: HOP-92
SNB-19 = test system: SNB-19
UACC-257 = test system: UACC-257
NCI-H522 = test system: NCI-H522
SK-MEL-2 = test system: SK-MEL-2
RPMI-8226 = test system: RPMI-8226
IGROV-1 = test system: IGROV-1
COLO 205 = test system: COLO 205
M19-MEL = test system: M19-MEL
SF-539 = test system: SF-539
OVCAR-5 = test system: OVCAR-5
HOP-62 = test system: HOP-62
KM-20L2 = test system: KM-20L2
K562 = test system: K562
M14 = test system: M14
SK-MEL-5 = test system: SK-MEL-5
SK-OV-3 = test system: SK-OV-3
SK-MEL-28 = test system: SK-MEL-28
KM12 = test system: KM12
SNB-78 = test system: SNB-78
LOX IMVI = test system: LOX IMVI
A549 = test system: A549
DMS-114 = test system: DMS-114
NCI-H460 = test system: NCI-H460
XF498 = test system: XF498
SNB-75 = test system: SNB-75
UO-31 = test system: UO-31
U-251 = test system: U-251
NCI-H23 = test system: NCI-H23
EKVX = test system: EKVX
HCT-116 = test system: HCT-116
DMS-273 = test system: DMS-273
RXF 393 = test system: RXF 393
MOLT-4 = test system: MOLT-4
SW-620 = test system: SW-620
HL-60 = test system: HL-60
LXFL 529 = test system: LXFL 529
DLD-1 = test system: DLD-1
OVCAR-8 = test system: OVCAR-8
786-0 = test system: 786-0
HCC 2998 = test system: HCC 2998
Malme-3M = test system: Malme-3M
OVCAR-3 = test system: OVCAR-3
TK-10 = test system: TK-10
ACHN = test system: ACHN
HT-29 = test system: HT-29
CCRF-CEM = test system: CCRF-CEM
HCT-15 = test system: HCT-15
OVCAR-4 = test system: OVCAR-4
SF-268 = test system: SF-268
CAKI-1 = test system: CAKI-1
NCI-H226 = test system: NCI-H226
SN12C = test system: SN12C
SF-295 = test system: SF-295

Cc1ccc(NC(=O)NC23CC4CC(CC(F)(C4)C2)C3)cc1
GI50 (UACC-62): 69.3 µM (inactive)
GI50 (A498): > 100 µM (inactive)
GI50 (HOP-92): 55.2 µM (inactive)
GI50 (SNB-19): > 100 µM (inactive)
GI50 (UACC-257): > 100 µM (inactive)
GI50 (NCI-H522): 99.5 µM (inactive)
GI50 (SK-MEL-2): > 100 µM (inactive)
GI50 (RPMI-8226): 28.3 µM (inactive)
GI50 (IGROV-1): > 100 µM (inactive)
GI50 (COLO 205): > 100 µM (inactive)
GI50 (M19-MEL): > 100 µM (inactive)
GI50 (SF-539): > 100 µM (inactive)
GI50 (OVCAR-5): > 100 µM (inactive)
GI50 (HOP-62): > 100 µM (inactive)
GI50 (KM-20L2): 45.9 µM (inactive)
GI50 (K562): 44.6 µM (inactive)
GI50 (M14): 95.3 µM (inactive)
GI50 (SK-MEL-5): > 100 µM (inactive)
GI50 (SK-OV-3): > 100 µM (inactive)
GI50 (SK-MEL-28): > 100 µM (inactive)
GI50 (KM12): 82.6 µM (inactive)
GI50 (SNB-78): > 100 µM (inactive)
GI50 (LOX IMVI): > 100 µM (inactive)
GI50 (A549): > 100 µM (inactive)
GI50 (DMS-114): 46.6 µM (inactive)
GI50 (NCI-H460): > 100 µM (inactive)
GI50 (XF498): > 100 µM (inactive)
GI50 (SNB-75): 25.2 µM (inactive)
GI50 (UO-31): 40.1 µM (inactive)
GI50 (U-251): > 100 µM (inactive)
GI50 (NCI-H23): 99.3 µM (inactive)
GI50 (EKVX): 92.3 µM (inactive)
GI50 (HCT-116): 41.3 µM (inactive)
GI50 (DMS-273): 86.3 µM (inactive)
GI50 (RXF 393): > 100 µM (inactive)
GI50 (MOLT-4): 40.6 µM (inactive)
GI50 (SW-620): > 100 µM (inactive)
GI50 (HL-60): 64.3 µM (inactive)
GI50 (LXFL 529): 88.7 µM (inactive)
GI50 (DLD-1): > 100 µM (inactive)
GI50 (OVCAR-8): > 100 µM (inactive)
GI50 (786-0): > 100 µM (inactive)
GI50 (HCC 2998): > 100 µM (inactive)
GI50 (Malme-3M): > 100 µM (inactive)
GI50 (OVCAR-3): > 100 µM (inactive)
GI50 (TK-10): > 100 µM (inactive)
GI50 (ACHN): > 100 µM (inactive)
GI50 (HT-29): 53.6 µM (inactive)
GI50 (CCRF-CEM): 56.4 µM (inactive)

CC(C)OC(=O)C1Cc2c([nH]c3ccccc23)C(c2ccccc2)N1 (stereo not given)
GI50 (UACC-62): > 100 µM (inactive)
GI50 (HCT-15): 75.3 µM
GI50 (OVCAR-4): 79.8 µM (inactive)
GI50 (A498): 88.5 µM (inactive)
GI50 (HOP-92): 55 µM (inactive)
GI50 (SNB-19): > 100 µM (inactive)
GI50 (UACC-257): 68.5 µM (inactive)
GI50 (SF-268): 56.9 µM (inactive)
GI50 (NCI-H522): 29.2 µM (inactive)
GI50 (SK-MEL-2): 18.2 µM (inactive)
GI50 (CAKI-1): > 100 µM (inactive)
GI50 (RPMI-8226): 84.9 µM (inactive)
GI50 (IGROV-1): > 100 µM (inactive)
GI50 (COLO 205): > 100 µM (inactive)
GI50 (M19-MEL): > 100 µM (inactive)
GI50 (SF-539): > 100 µM (inactive)
GI50 (OVCAR-5): > 100 µM (inactive)
GI50 (HOP-62): 23.4 µM (inactive)
GI50 (KM-20L2): > 100 µM (inactive)
GI50 (K562): 50.1 µM (inactive)
GI50 (M14): 81.7 µM (inactive)
GI50 (SK-MEL-5): 91.2 µM (inactive)
GI50 (SK-OV-3): > 100 µM (inactive)
GI50 (SK-MEL-28): 42.5 µM (inactive)
GI50 (KM12): 97.1 µM (inactive)
GI50 (SNB-78): > 100 µM (inactive)
GI50 (LOX IMVI): > 100 µM (inactive)
GI50 (A549): 66.1 µM (inactive)
GI50 (DMS-114): 52.4 µM (inactive)
GI50 (NCI-H460): > 100 µM (inactive)
GI50 (XF498): > 100 µM (inactive)
GI50 (SNB-75): 18.3 µM (inactive)
GI50 (UO-31): 18 µM (inactive)
GI50 (U-251): > 100 µM (inactive)
GI50 (NCI-H23): 67.1 µM (inactive)
GI50 (EKVX): 89.3 µM (inactive)
GI50 (HCT-116): 62.4 µM (inactive)
GI50 (DMS-273): > 100 µM (inactive)
GI50 (RXF 393): 23.8 µM (inactive)
GI50 (MOLT-4): 42.5 µM (inactive)
GI50 (SW-620): > 100 µM (inactive)
GI50 (HL-60): 33 µM (inactive)
GI50 (LXFL 529): 79.6 µM (inactive)
GI50 (DLD-1): 23.6 µM (inactive)
GI50 (OVCAR-8): > 100 µM (inactive)
GI50 (786-0): 27.7 µM (inactive)
GI50 (NCI-H226): > 100 µM (inactive)
GI50 (SN12C): > 100 µM (inactive)
GI50 (HCC 2998): 30.5 µM (inactive)
GI50 (Malme-3M): 25.7 µM (inactive)
GI50 (OVCAR-3): > 100 µM (inactive)
GI50 (TK-10): > 100 µM (inactive)
GI50 (ACHN): 93.8 µM (inactive)
GI50 (SF-295): > 100 µM (inactive)
GI50 (HT-29): 98.4 µM (inactive)
GI50 (CCRF-CEM): 79.4 µM (inactive)
